For data set [1], the system named is HCT-116. The data set is described as follows: Induction of apoptosis in human HCT-116 cells assessed as apoptotic rate at 5 uM pretreated with NAC incubated for 24 hrs by Annexin-V/PI staining based flow cytometry analysis (reference value: 9.8 +/- 1.59%). Format: functional.
Data set [2] deals with HCT-116. As to the kind of experiment: Induction of apoptosis in human HCT-116 cells assessed as apoptotic rate at 5 uM incubated for 24 hrs by Annexin-V/PI staining based flow cytometry analysis. It is filed as functional.
In data set [3] the test system is HCT-116. As to the kind of experiment: Induction of ROS generation in human HCT-116 cells incubated for 4 hrs by DCFH-DA staining based flow cytometry analysis. Format: functional, cell-based. The conditions noted are these: dose 2.5-10 µM.
For data set [4], the system named is HCT-116. The data set is described as follows: Induction of ROS generation in human HCT-116 cells at 10 uM incubated for 4 hrs by DCFH-DA staining based flow cytometry analysis. Format: functional, cell-based. (In general: In flow cytometry, cells or beads pass a laser one at a time.)
The test system of data set [5] is IDO1. As to the kind of experiment: Selectivity ratio of IC50 for cytotoxicity against human HeLa cells to EC50 for inhibition of IDO1 in human HeLa cells. It is filed as cell-based. The conditions noted are these: read-out: Ratio IC50/EC50.
Data set [6] relates to IDO1. The data set is described as follows: Selectivity ratio of IC50 for cytotoxicity against human HCT-116 cells to EC50 for inhibition of IDO1 in human HCT-116 cells. The conditions noted are these: read-out: Ratio IC50/EC50. It is filed as cell-based.
The target in data set [7] is T1, Thioredoxin reductase 1, cytoplasmic (Homo sapiens, UniProt Q16881).
T1 sequence (Q16881 whole entry): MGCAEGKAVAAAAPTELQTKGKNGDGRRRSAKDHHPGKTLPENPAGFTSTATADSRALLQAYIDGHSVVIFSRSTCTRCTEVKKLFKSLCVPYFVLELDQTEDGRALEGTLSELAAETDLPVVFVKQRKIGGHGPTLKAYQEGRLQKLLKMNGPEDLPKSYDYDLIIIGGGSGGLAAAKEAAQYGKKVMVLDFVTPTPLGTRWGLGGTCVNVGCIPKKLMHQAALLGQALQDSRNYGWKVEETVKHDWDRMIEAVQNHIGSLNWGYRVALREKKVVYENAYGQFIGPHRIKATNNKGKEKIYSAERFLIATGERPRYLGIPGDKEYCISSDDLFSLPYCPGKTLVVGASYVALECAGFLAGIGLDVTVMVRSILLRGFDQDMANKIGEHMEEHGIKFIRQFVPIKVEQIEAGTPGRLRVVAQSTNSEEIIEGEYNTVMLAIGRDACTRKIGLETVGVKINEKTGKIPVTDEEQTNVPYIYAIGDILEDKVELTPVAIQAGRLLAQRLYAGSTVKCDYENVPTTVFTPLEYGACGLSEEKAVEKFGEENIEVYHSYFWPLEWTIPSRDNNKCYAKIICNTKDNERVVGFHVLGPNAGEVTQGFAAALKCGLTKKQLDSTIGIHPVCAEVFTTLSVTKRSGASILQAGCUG
The data set is described as follows: Inhibition of TrxR1 in human HeLa cells incubated for 24 hrs. Format: cell-based.

Data set [8] addresses T2, Thioredoxin reductase 1, cytoplasmic (Mus musculus, UniProt Q9JMH6).
T2 sequence (Q9JMH6 whole entry): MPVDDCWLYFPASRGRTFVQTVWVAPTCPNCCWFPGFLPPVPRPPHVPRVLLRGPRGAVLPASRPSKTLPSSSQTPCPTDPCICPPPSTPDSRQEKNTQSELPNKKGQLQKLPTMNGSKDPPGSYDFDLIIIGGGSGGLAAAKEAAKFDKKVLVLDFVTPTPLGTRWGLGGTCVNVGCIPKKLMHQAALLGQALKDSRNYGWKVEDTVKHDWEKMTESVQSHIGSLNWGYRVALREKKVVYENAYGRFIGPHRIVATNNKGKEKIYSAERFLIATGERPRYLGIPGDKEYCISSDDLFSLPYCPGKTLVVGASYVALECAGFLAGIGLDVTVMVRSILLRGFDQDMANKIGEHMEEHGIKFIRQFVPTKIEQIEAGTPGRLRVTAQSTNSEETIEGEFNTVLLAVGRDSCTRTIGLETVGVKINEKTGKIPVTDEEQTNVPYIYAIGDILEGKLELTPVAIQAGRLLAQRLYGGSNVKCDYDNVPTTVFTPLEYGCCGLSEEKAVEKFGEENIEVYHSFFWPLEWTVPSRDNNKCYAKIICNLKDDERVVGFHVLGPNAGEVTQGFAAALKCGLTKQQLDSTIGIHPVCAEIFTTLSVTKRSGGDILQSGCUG
The data set is described as follows: Inhibition of TrxR1 in mouse CT26 cells incubated for 24 hrs. Format: cell-based.

The subject of data set [9] is HCT-116. The data set is described as follows: Induction of cell cycle arrest in human HCT-116 cells assessed as G1/S phase arrest at 2.5 to 10 uM pretreated with NAC for 2 hrs followed by compound addition and measured after 12 hrs by PI staining based flow cytometry analysis. Format: functional. The conditions noted are these: dose 2.5-10 µM.
Data set [10] concerns HeLa. As to the kind of experiment: Cytotoxicity against human HeLa cells incubated for 24 hrs in presence of NAC CCK-8 assay. Format: functional, cell-based.
The test system of data set [11] is HeLa. As to the kind of experiment: Induction of cell cycle arrest in human HeLa cells assessed as G1/S phase arrest at 2.5 to 10 uM pretreated with NAC for 2 hrs followed by compound addition and measured after 12 hrs by PI staining based flow cytometry analysis. It is filed as functional. The conditions noted are these: dose 2.5-10 µM.
Data set [12] has as its system HeLa. The data set is described as follows: Cytotoxicity against TrxR1 knockdown human HeLa cells incubated for 24 hrs by CCK-8 assay (reference value: 13.79 +/- 2 uM). Format: functional, cell-based.
Data set [13] concerns HeLa. The data set is described as follows: Cytotoxicity against human HeLa cells transfected with TrxR1 siRNA incubated for 24 hrs by CCK-8 assay (reference value: 9.74 +/- 1.64 uM). It is filed as functional, cell-based. Background: Tetrazolium dyes change colour on reduction, which living cells bring about.
For data set [14], the target named is Indoleamine 2,3-dioxygenase 1 (Mus musculus) (UniProt P28776). The data set is described as follows: In vivo inhibition of IDO1 in BALB/c mouse implanted with mouse CT-26 cells assessed as increase in plasma Trp level at 60 mg/kg, po administered once daily by LC-MS/MS analysis. Format: functional, organism-based.
Sequence of Indoleamine 2,3-dioxygenase 1 (Mus musculus) (P28776 whole entry, looked up): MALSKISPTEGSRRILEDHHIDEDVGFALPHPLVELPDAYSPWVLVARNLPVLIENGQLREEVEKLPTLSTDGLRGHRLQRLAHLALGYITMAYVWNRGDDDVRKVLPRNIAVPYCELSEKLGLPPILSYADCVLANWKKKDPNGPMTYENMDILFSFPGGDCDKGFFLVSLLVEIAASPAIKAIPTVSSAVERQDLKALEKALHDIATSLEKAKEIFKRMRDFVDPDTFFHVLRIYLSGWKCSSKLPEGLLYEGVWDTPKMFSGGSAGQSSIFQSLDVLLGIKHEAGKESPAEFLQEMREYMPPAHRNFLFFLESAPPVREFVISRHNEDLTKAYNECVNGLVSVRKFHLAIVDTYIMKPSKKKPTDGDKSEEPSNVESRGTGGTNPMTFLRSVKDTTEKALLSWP
For data set [15] the target is unchanged. As to the kind of experiment: In vivo inhibition of IDO1 in BALB/c mouse implanted with mouse CT-26 cells assessed as reduction in plasma Kyn/Trp ratio at 60 mg/kg, po administered once daily by LC-MS/MS analysis. Format: functional, organism-based.
Data set [16] in a line: Toxicity in athymic nude BALB/c mouse assessed as weight gain at 15 to 60 mg/kg, ig administered daily for 28 days and measured every 4 days. It is filed as organism-based. The conditions noted are these: in vivo, po, 672 h, dose 15-60 mg/kg, time 28 day.
Data set [17] relates to CT26. As to the kind of experiment: Antitumor activity against mouse CT26 cells implanted in athymic nude BALB/c mouse assessed as increase in CTL proliferation by measuring Ki67 expression at 60 mg/kg, ig administered daily for 28 days and measured every 4 days by immunofluorescence analysis. The conditions noted are these: time 28.0 day. It is filed as functional, organism-based.

The test system of data set [18] is CT26. As to the kind of experiment: Antitumor activity against mouse CT26 cells implanted in athymic nude BALB/c mouse assessed as reduction in nTreg lymphocytes at 15 to 60 mg/kg, ig administered daily for 28 days and measured every 4 days by immunofluorescence analysis. The conditions noted are these: dose 15-60 mg/kg, time 28.0 day. Format: functional, organism-based.

The nature of data set [19]: Toxicity in athymic BALB/c mouse xenografted with human HCT-116 cells assessed as change in lung morphology at 15 to 60 mg/kg, ig administered daily for 28 days and measured every 4 days. It is filed as organism-based. The conditions noted are these: in vivo, po, 672 h, dose 15-60 mg/kg, time 28 day.
Data set [20] has as its system HCT-116. As to the kind of experiment: Antitumor activity against human HCT-116 cells xenografted in athymic nude BALB/c mouse assessed as reduction in mitosis of tumor cells at 15 to 60 mg/kg, ig administered daily for 28 days and measured every 4 days. Format: functional, organism-based. The conditions noted are these: dose 15-60 mg/kg, time 28.0 day. In general terms: In xenograft studies the graft and the host belong to different species.

Calls of active or inactive are those of the source. The calls are words filed in the database; no cut-off is given here.

In general, EC50 refers to the midpoint of the concentration-response curve. A higher EC50 goes with weaker potency. The IC50 is the point on the concentration scale where inhibition reaches its midpoint. On to `O=C(Cc1ccc(O)cc1)Nc1nnc(CCCNc2nonc2/C(=N\O)Nc2ccc(F)c(Br)c2)s1`, for which the Activity in [1] was 11.98%; in data set [2], 30.64%; in [3], “Dose-Dependent Effect”; in [16] it was “Toxic”; in [19], “Non-Toxic”. Also, the result in [4], in data set [11], in data set [14], in data set [15], in [17] and in [18] was Active. Further, the outcome in data set [20] was Active. For the same compound, the selectivity ratio in [5] was found to be 224; in [6], 101. In addition, the EC50 is 13.1 µM in data set [7] and 25.7 µM in data set [8]. In addition, the outcome in [9] was inactive. The IC50 is 74.2 µM in data set [10], 7.2 µM in [12] and 4.86 µM in data set [13].

The values above are taken from ChEMBL document CHEMBL5385848, “Discovery of novel hydroxyamidine based indoleamine 2,3-dioxygenase 1 (IDO1) and thioredoxin reductase 1 (TrxR1) dual inhibitors” (Eur J Med Chem, 2023).
